Measured values published in patent publication US20080119515A1, “Heterocyclic Kinase Inhibitors: Methods of Use and Synthesis” (priority 2003, published 2008).

Biological target: T1, ZAP-70 (Homo sapiens, UniProt P43403)
T1 sequence (P43403 1-619): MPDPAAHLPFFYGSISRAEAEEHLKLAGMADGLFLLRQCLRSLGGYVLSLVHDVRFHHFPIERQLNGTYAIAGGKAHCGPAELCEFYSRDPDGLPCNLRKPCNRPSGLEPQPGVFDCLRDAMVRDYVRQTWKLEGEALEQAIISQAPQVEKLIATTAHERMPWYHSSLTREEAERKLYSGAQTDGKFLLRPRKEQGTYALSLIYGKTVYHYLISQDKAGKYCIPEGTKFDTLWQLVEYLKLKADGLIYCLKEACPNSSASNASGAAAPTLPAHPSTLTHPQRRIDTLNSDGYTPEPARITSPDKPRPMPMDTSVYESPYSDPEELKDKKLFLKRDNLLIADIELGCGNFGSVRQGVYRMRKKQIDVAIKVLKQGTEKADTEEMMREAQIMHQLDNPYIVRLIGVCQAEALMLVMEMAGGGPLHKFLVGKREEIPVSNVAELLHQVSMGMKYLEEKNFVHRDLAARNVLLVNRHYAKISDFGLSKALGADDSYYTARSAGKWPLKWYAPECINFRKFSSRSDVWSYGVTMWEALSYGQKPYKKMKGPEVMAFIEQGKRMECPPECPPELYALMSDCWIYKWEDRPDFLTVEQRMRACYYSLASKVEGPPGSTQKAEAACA
Experiment: DELFIA assay (ZAP-70 kinase, phosphorylation of biotinylated poly(glu,tyr))
Format: biochemical
Conditions: ZAP-70 DELFIA, class symbols; read-out: Activity (IC50 in vitro)
Summary of the method: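 3.1 nM ZAP-70 pre-incubated 10 min at room temperature with compound ([…]) and 62.5 nM biotinylated poly(glu,tyr) in 62.5 mM Mops pH 7.0, 12.5 mM MgCl2, 12.5% glycerol, 6.25% DMSO (pre-incubation concentrations); ATP added from 5 mM stock, 30 min reaction, EDTA stop. Phosphorylation read by DELFIA europium anti-phosphotyrosine fluorescence (340/615).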

Compound	IC50
N#Cc1ccc(-c2ccc3nc(N[C@H]4CCc5ccccc54)cc(C(=O)N4CCC[C@H]4CN4CCCC4)c3c2)cc1 [Compound 183]	> 10 µM
CC[C@@H](Nc1cc(C(=O)N2CCC[C@H]2CN2CCCC2)c2cc(-c3ccc(C#N)cc3)ccc2n1)c1ccccc1 [Compound 184]	> 10 µM
COC[C@H](Cc1ccccc1)Nc1cc(C(=O)N2CCC[C@H]2CN2CCCC2)c2cc(-c3ccc(C#N)cc3)ccc2n1 [Compound 185]	> 10 µM
C[C@@H](CNc1cc(C(=O)N2CCC[C@H]2CN2CCCC2)c2cc(-c3ccc(C#N)cc3)ccc2n1)c1ccccc1 [Compound 186]	> 10 µM
C[C@H](CNc1cc(C(=O)N2CCC[C@H]2CN2CCCC2)c2cc(-c3ccc(C#N)cc3)ccc2n1)c1ccccc1 [Compound 187]	> 10 µM
N#Cc1ccc(-c2ccc3nc(NCc4cc(F)cc(F)c4)cc(C(=O)N4CCC[C@H]4CN4CCCC4)c3c2)cc1 [Compound 188]	> 10 µM
N#Cc1ccc(-c2ccc3nc(NCc4cc(Cl)cc(Cl)c4)cc(C(=O)N4CCC[C@H]4CN4CCCC4)c3c2)cc1 [Compound 189]	> 10 µM
N#Cc1ccc(-c2ccc3nc(NCc4cccc(OC(F)(F)F)c4)cc(C(=O)N4CCC[C@H]4CN4CCCC4)c3c2)cc1 [Compound 190]	> 10 µM
N#Cc1ccc(-c2ccc3nc(NCCc4ccccc4F)cc(C(=O)N4CCC[C@H]4CN4CCCC4)c3c2)cc1 [Compound 191]	> 10 µM
N#Cc1ccc(-c2ccc3nc(NCCc4ccc(F)cc4)cc(C(=O)N4CCC[C@H]4CN4CCCC4)c3c2)cc1 [Compound 192]	> 10 µM
N#Cc1ccc(-c2ccc3nc(NCCc4ccc(Cl)cc4Cl)cc(C(=O)N4CCC[C@H]4CN4CCCC4)c3c2)cc1 [Compound 193]	> 10 µM
N#Cc1ccc(-c2ccc3nc(NCCc4cccc(F)c4)cc(C(=O)N4CCC[C@H]4CN4CCCC4)c3c2)cc1 [Compound 194]	> 10 µM
N#Cc1ccc(-c2ccc3nc(NCc4cc(F)cc(C(F)(F)F)c4)cc(C(=O)N4CCC[C@H]4CN4CCCC4)c3c2)cc1 [Compound 195]	> 10 µM

Now from value to compound:

IC50	Compound
> 10 µM	N#Cc1ccc(-c2ccc3nc(NCCc4ccccc4)cc(C(=O)N4CCC[C@H]4CN4CCCC4)c3c2)cc1 [Compound 170]
> 10 µM	CC[C@H](Nc1cc(C(=O)N2CCC[C@H]2CN2CCCC2)c2cc(-c3ccc(C#N)cc3)ccc2n1)c1ccccc1 [Compound 171]
> 10 µM	Cc1ccccc1CNc1cc(C(=O)N2CCC[C@H]2CN2CCCC2)c2cc(-c3ccc(C#N)cc3)ccc2n1 [Compound 172]
> 10 µM	Cc1ccc(CCNc2cc(C(=O)N3CCC[C@H]3CN3CCCC3)c3cc(-c4ccc(C#N)cc4)ccc3n2)cc1 [Compound 173]
> 10 µM	N#Cc1ccc(-c2ccc3nc(NCCc4ccc(Cl)cc4)cc(C(=O)N4CCC[C@H]4CN4CCCC4)c3c2)cc1 [Compound 174]
> 10 µM	CN(CCc1ccccc1)c1cc(C(=O)N2CCC[C@H]2CN2CCCC2)c2cc(-c3ccc(C#N)cc3)ccc2n1 [Compound 175]
> 10 µM	C[C@H](Nc1cc(C(=O)N2CCC[C@H]2CN2CCCC2)c2cc(-c3ccc(C#N)cc3)ccc2n1)c1ccccc1 [Compound 176]
> 10 µM	COc1ccc(CCNc2cc(C(=O)N3CCC[C@H]3CN3CCCC3)c3cc(-c4ccc(C#N)cc4)ccc3n2)cc1 [Compound 177]
> 10 µM	Cc1ccc(CNc2cc(C(=O)N3CCC[C@H]3CN3CCCC3)c3cc(-c4ccc(C#N)cc4)ccc3n2)cc1 [Compound 178]
> 10 µM	N#Cc1ccc(-c2ccc3nc(NCc4ccc(F)c(Cl)c4)cc(C(=O)N4CCC[C@H]4CN4CCCC4)c3c2)cc1 [Compound 179]
> 10 µM	N#Cc1ccc(-c2ccc3nc(NCc4ccc(Cl)cc4F)cc(C(=O)N4CCC[C@H]4CN4CCCC4)c3c2)cc1 [Compound 180]
> 10 µM	N#Cc1ccc(-c2ccc3nc(NCc4ccccc4Br)cc(C(=O)N4CCC[C@H]4CN4CCCC4)c3c2)cc1 [Compound 181]
> 10 µM	N#Cc1ccc(-c2ccc3nc(N[C@@H]4CCc5ccccc54)cc(C(=O)N4CCC[C@H]4CN4CCCC4)c3c2)cc1 [Compound 182]
